#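 48-hour exposure; five concentrations; linearly interpolated endpoints. GI50 marks 50% less growth. TGI: concentration producing complete growth inhibition.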
# Legend:
# Assay in all cases: NCI tumour cell line growth inhibition, 48 h
# A549 NSCLC = test system: A549 NSCLC
# PC-3 prostate = test system: PC-3 prostate
# NCI-H226 lung = test system: NCI-H226 lung
# HT29 colon = test system: HT29 colon
# SW-620 colon = test system: SW-620 colon
# SK-MEL-28 melanoma = test system: SK-MEL-28 melanoma
# CAKI-1 renal = test system: CAKI-1 renal
# NCI-H23 lung = test system: NCI-H23 lung
# HS 578T breast = test system: HS 578T breast
# HOP-62 NSCLC = test system: HOP-62 NSCLC
# SF-268 CNS = test system: SF-268 CNS
# IGROV1 ovarian = test system: IGROV1 ovarian
# MALME-3M melanoma = test system: MALME-3M melanoma
# HCT-116 colon = test system: HCT-116 colon
# A498 renal = test system: A498 renal
# SNB-19 CNS = test system: SNB-19 CNS
# SF-295 CNS = test system: SF-295 CNS
# SK-MEL-5 melanoma = test system: SK-MEL-5 melanoma
# K-562 leukemia = test system: K-562 leukemia
# HOP-92 NSCLC = test system: HOP-92 NSCLC
# UO-31 renal = test system: UO-31 renal
# MDA-MB-231 breast = test system: MDA-MB-231 breast
# SN12C renal = test system: SN12C renal
# SK-MEL-2 melanoma = test system: SK-MEL-2 melanoma
# SF-539 CNS = test system: SF-539 CNS
# KM12 colon = test system: KM12 colon
# OVCAR-3 ovarian = test system: OVCAR-3 ovarian
# OVCAR-5 ovarian = test system: OVCAR-5 ovarian
# 786-0 renal = test system: 786-0 renal
# UACC-62 melanoma = test system: UACC-62 melanoma
# EKVX NSCLC = test system: EKVX NSCLC
# M14 melanoma = test system: M14 melanoma
# OVCAR-8 ovarian = test system: OVCAR-8 ovarian
# NCI/ADR-RES ovarian = test system: NCI/ADR-RES ovarian
# U251 CNS = test system: U251 CNS
# T-47D breast = test system: T-47D breast
# MDA-MB-435 = test system: MDA-MB-435
# DU-145 prostate = test system: DU-145 prostate
# NCI-H522 lung = test system: NCI-H522 lung
# COLO 205 colon = test system: COLO 205 colon
# UACC-257 melanoma = test system: UACC-257 melanoma
# MCF7 breast = test system: MCF7 breast
# TK-10 renal = test system: TK-10 renal
# NCI-H460 lung = test system: NCI-H460 lung
# BT-549 breast = test system: BT-549 breast
# HCT-15 colon = test system: HCT-15 colon
# SNB-75 CNS = test system: SNB-75 CNS
# RXF 393 renal = test system: RXF 393 renal
# HL-60(TB) leukemia = test system: HL-60(TB) leukemia
# ACHN renal = test system: ACHN renal
# SK-OV-3 ovarian = test system: SK-OV-3 ovarian
# LOX IMVI melanoma = test system: LOX IMVI melanoma
# RPMI-8226 leukemia = test system: RPMI-8226 leukemia
# CCRF-CEM leukemia = test system: CCRF-CEM leukemia
# OVCAR-4 ovarian = test system: OVCAR-4 ovarian
# HCC-2998 colon = test system: HCC-2998 colon
# SR leukemia = test system: SR leukemia
# MOLT-4 leukemia = test system: MOLT-4 leukemia
smiles,measurement,setting,value
O=C(N/N=C/c1ccccc1Cl)c1ccccc1Nc1ccnc(C(F)(F)F)c1,GI50,A549 NSCLC,3010 nM
same,TGI,A549 NSCLC,8910 nM
same,GI50,PC-3 prostate,1830 nM
same,TGI,PC-3 prostate,9600 nM
same,GI50,NCI-H226 lung,811 nM
same,TGI,NCI-H226 lung,3520 nM
same,GI50,HT29 colon,3560 nM
same,TGI,HT29 colon,> 100000 nM
same,GI50,SW-620 colon,1530 nM
same,TGI,SW-620 colon,14500 nM
same,GI50,SK-MEL-28 melanoma,2390 nM
same,TGI,SK-MEL-28 melanoma,27600 nM
same,GI50,CAKI-1 renal,389 nM
same,TGI,CAKI-1 renal,2720 nM
same,GI50,NCI-H23 lung,1820 nM
same,TGI,NCI-H23 lung,8180 nM
same,GI50,HS 578T breast,1820 nM
same,TGI,HS 578T breast,7230 nM
same,GI50,HOP-62 NSCLC,1310 nM
same,TGI,HOP-62 NSCLC,8180 nM
same,GI50,SF-268 CNS,1800 nM
same,TGI,SF-268 CNS,10500 nM
same,GI50,IGROV1 ovarian,1870 nM
same,TGI,IGROV1 ovarian,10300 nM
same,GI50,MALME-3M melanoma,1550 nM
same,TGI,MALME-3M melanoma,4940 nM
same,GI50,HCT-116 colon,637 nM
same,TGI,HCT-116 colon,3270 nM
same,GI50,A498 renal,1760 nM
same,TGI,A498 renal,5990 nM
same,GI50,SNB-19 CNS,2400 nM
same,TGI,SNB-19 CNS,> 61200 nM
same,GI50,SF-295 CNS,354 nM
same,TGI,SF-295 CNS,1330 nM
same,GI50,SK-MEL-5 melanoma,627 nM
same,TGI,SK-MEL-5 melanoma,2710 nM
same,GI50,K-562 leukemia,2160 nM
same,GI50,HOP-92 NSCLC,1690 nM
same,TGI,HOP-92 NSCLC,6170 nM
same,GI50,UO-31 renal,1920 nM
same,TGI,UO-31 renal,6490 nM
same,GI50,MDA-MB-231 breast,1930 nM
same,TGI,MDA-MB-231 breast,6940 nM
same,GI50,SN12C renal,1270 nM
same,TGI,SN12C renal,12700 nM
same,GI50,SK-MEL-2 melanoma,1790 nM
same,TGI,SK-MEL-2 melanoma,5020 nM
same,GI50,SF-539 CNS,1600 nM
same,TGI,SF-539 CNS,3700 nM
same,GI50,KM12 colon,1990 nM
same,TGI,KM12 colon,6660 nM
same,GI50,OVCAR-3 ovarian,832 nM
same,TGI,OVCAR-3 ovarian,3680 nM
same,GI50,OVCAR-5 ovarian,2750 nM
same,TGI,OVCAR-5 ovarian,17300 nM
same,GI50,786-0 renal,616 nM
same,TGI,786-0 renal,3530 nM
same,GI50,UACC-62 melanoma,976 nM
same,TGI,UACC-62 melanoma,3720 nM
same,GI50,EKVX NSCLC,1650 nM
same,TGI,EKVX NSCLC,5940 nM
same,GI50,M14 melanoma,1630 nM
same,TGI,M14 melanoma,7190 nM
same,GI50,OVCAR-8 ovarian,2290 nM
same,TGI,OVCAR-8 ovarian,8080 nM
same,GI50,NCI/ADR-RES ovarian,2160 nM
same,TGI,NCI/ADR-RES ovarian,9320 nM
same,GI50,U251 CNS,1150 nM
same,TGI,U251 CNS,6180 nM
same,GI50,T-47D breast,1330 nM
same,TGI,T-47D breast,6410 nM
same,GI50,MDA-MB-435,1710 nM
same,TGI,MDA-MB-435,6810 nM
same,GI50,DU-145 prostate,2500 nM
same,TGI,DU-145 prostate,> 26500 nM
same,GI50,NCI-H522 lung,1980 nM
same,TGI,NCI-H522 lung,6740 nM
same,GI50,COLO 205 colon,1550 nM
same,TGI,COLO 205 colon,3250 nM
same,GI50,UACC-257 melanoma,2610 nM
same,TGI,UACC-257 melanoma,5580 nM
same,GI50,MCF7 breast,706 nM
same,TGI,MCF7 breast,4520 nM
same,GI50,TK-10 renal,673 nM
same,TGI,TK-10 renal,3870 nM
same,GI50,NCI-H460 lung,768 nM
same,TGI,NCI-H460 lung,2380 nM
same,GI50,BT-549 breast,1770 nM
same,TGI,BT-549 breast,7130 nM
same,GI50,HCT-15 colon,430 nM
same,TGI,HCT-15 colon,3950 nM
same,GI50,SNB-75 CNS,2410 nM
same,TGI,SNB-75 CNS,26700 nM
same,GI50,RXF 393 renal,174 nM
same,TGI,RXF 393 renal,1100 nM
same,GI50,HL-60(TB) leukemia,1710 nM
same,GI50,ACHN renal,1160 nM
same,TGI,ACHN renal,4720 nM
same,GI50,SK-OV-3 ovarian,1430 nM
same,TGI,SK-OV-3 ovarian,5310 nM
same,GI50,LOX IMVI melanoma,1330 nM
same,TGI,LOX IMVI melanoma,5210 nM
same,GI50,RPMI-8226 leukemia,470 nM
same,TGI,RPMI-8226 leukemia,2740 nM
same,GI50,CCRF-CEM leukemia,320 nM
same,TGI,CCRF-CEM leukemia,1760 nM
same,GI50,OVCAR-4 ovarian,1320 nM
same,TGI,OVCAR-4 ovarian,> 100000 nM
same,GI50,HCC-2998 colon,1740 nM
same,TGI,HCC-2998 colon,7240 nM
COc1ccc(C2=C(c3ccc(OC)c(OC)c3)C(=O)OC2)cc1,GI50,A549 NSCLC,133 nM
same,TGI,A549 NSCLC,> 100000 nM
same,GI50,PC-3 prostate,< 30.1 nM
same,TGI,PC-3 prostate,> 100000 nM
same,GI50,NCI-H226 lung,16.9 nM
same,TGI,NCI-H226 lung,2920 nM
same,GI50,HT29 colon,< 10 nM
same,TGI,HT29 colon,> 100000 nM
same,TGI,SW-620 colon,> 100000 nM
same,TGI,SK-MEL-28 melanoma,> 100000 nM
same,TGI,CAKI-1 renal,4890 nM
same,GI50,NCI-H23 lung,23 nM
same,TGI,NCI-H23 lung,> 100000 nM
same,GI50,HS 578T breast,255 nM
same,TGI,HS 578T breast,792 nM
same,GI50,HOP-62 NSCLC,< 10 nM
same,GI50,SF-268 CNS,106 nM
same,TGI,SF-268 CNS,> 91700 nM
same,GI50,IGROV1 ovarian,76.8 nM
same,TGI,IGROV1 ovarian,> 62800 nM
same,TGI,MALME-3M melanoma,> 81000 nM
same,GI50,HCT-116 colon,< 10 nM
same,TGI,HCT-116 colon,> 100000 nM
same,GI50,A498 renal,80.3 nM
same,TGI,A498 renal,42300 nM
same,GI50,SNB-19 CNS,263 nM
same,TGI,SNB-19 CNS,> 100000 nM
same,GI50,SF-295 CNS,< 49.6 nM
same,GI50,SK-MEL-5 melanoma,< 50 nM
same,TGI,SK-MEL-5 melanoma,2570 nM
same,GI50,K-562 leukemia,< 10 nM
same,GI50,HOP-92 NSCLC,3480 nM
same,TGI,HOP-92 NSCLC,32600 nM
same,GI50,UO-31 renal,116 nM
same,TGI,UO-31 renal,> 85900 nM
same,GI50,MDA-MB-231 breast,682 nM
same,GI50,SN12C renal,123 nM
same,TGI,SN12C renal,> 82100 nM
same,TGI,SK-MEL-2 melanoma,> 100000 nM
same,TGI,SF-539 CNS,> 24200 nM
same,TGI,KM12 colon,3340 nM
same,GI50,OVCAR-3 ovarian,177 nM
same,TGI,OVCAR-3 ovarian,389 nM
same,GI50,SR leukemia,< 10 nM
same,TGI,SR leukemia,19.2 nM
same,GI50,OVCAR-5 ovarian,545 nM
same,TGI,OVCAR-5 ovarian,> 100000 nM
same,GI50,786-0 renal,< 10 nM
same,GI50,UACC-62 melanoma,< 10 nM
same,TGI,UACC-62 melanoma,13200 nM
same,GI50,EKVX NSCLC,1950 nM
same,TGI,EKVX NSCLC,> 100000 nM
same,GI50,M14 melanoma,< 10 nM
same,TGI,M14 melanoma,> 36400 nM
same,GI50,OVCAR-8 ovarian,45.1 nM
same,TGI,OVCAR-8 ovarian,> 100000 nM
same,GI50,NCI/ADR-RES ovarian,< 10 nM
same,TGI,NCI/ADR-RES ovarian,1120 nM
same,GI50,U251 CNS,< 10 nM
same,TGI,U251 CNS,> 59600 nM
same,GI50,T-47D breast,1660 nM
same,TGI,T-47D breast,> 91800 nM
same,GI50,MDA-MB-435,< 46.3 nM
same,GI50,DU-145 prostate,185 nM
same,TGI,DU-145 prostate,> 100000 nM
same,GI50,NCI-H522 lung,< 40.6 nM
same,GI50,COLO 205 colon,< 23.8 nM
same,TGI,COLO 205 colon,> 68100 nM
same,GI50,UACC-257 melanoma,> 47400 nM
same,TGI,UACC-257 melanoma,> 100000 nM
same,TGI,MCF7 breast,> 48800 nM
same,TGI,TK-10 renal,16500 nM
same,TGI,NCI-H460 lung,> 100000 nM
same,GI50,BT-549 breast,3550 nM
same,TGI,BT-549 breast,> 100000 nM
same,GI50,HCT-15 colon,< 10 nM
same,TGI,HCT-15 colon,28600 nM
same,GI50,RXF 393 renal,79.2 nM
same,TGI,RXF 393 renal,> 100000 nM
same,TGI,HL-60(TB) leukemia,1510 nM
same,GI50,ACHN renal,< 13.5 nM
same,TGI,ACHN renal,> 100000 nM
same,TGI,SK-OV-3 ovarian,> 100000 nM
same,GI50,LOX IMVI melanoma,< 10 nM
same,TGI,LOX IMVI melanoma,> 39100 nM
same,GI50,RPMI-8226 leukemia,49.7 nM
same,TGI,RPMI-8226 leukemia,329 nM
same,GI50,CCRF-CEM leukemia,206 nM
same,TGI,CCRF-CEM leukemia,826 nM
same,GI50,OVCAR-4 ovarian,> 58400 nM
same,TGI,OVCAR-4 ovarian,> 100000 nM
same,GI50,MOLT-4 leukemia,< 20.8 nM
COc1ccc(-c2ccc(-c3ccc(C(=N)N)s3)s2)cc1Cl,GI50,A498 renal,1290 nM
same,TGI,A498 renal,2600 nM
same,GI50,SF-295 CNS,1800 nM
same,TGI,SF-295 CNS,3300 nM
same,GI50,SK-MEL-5 melanoma,1880 nM
same,TGI,SK-MEL-5 melanoma,3520 nM
same,GI50,SR leukemia,299 nM
same,TGI,SR leukemia,1340 nM
same,GI50,CCRF-CEM leukemia,1810 nM
same,TGI,CCRF-CEM leukemia,4720 nM
